pEC50, pIC50: −log10 of the molar value. Active and inactive are the calls of the source.
Tests used:
[1] = test system: PtK2; experiment: Inhibition of polo-like kinase 1 activity in rat kangaroo PtK2 cells expressing GFP-labeled alpha-tubulin assessed as interkinetochore distance at 33 uM after 45 mins; assay type: cell-based; details: Potorous tridactylus
[2] = test system: BSC-1; experiment: Antimitotic activity against african green monkey BSC1 cells assessed as induction of normal spindles at 2.5 uM by immunofluorescence microscopy; assay type: functional, cell-based; details: Chlorocebus aethiops
[3] = test system: BSC-1; experiment: Induction of monopolar mitotic spindles in african green monkey BSC1 cells assessed as kinesin-5 (Eg5) inhibition at 100 uM after 4 hrs; assay type: functional, cell-based; details: Chlorocebus aethiops
[4] = test system: BSC-1; experiment: Induction of deffects in mitotic spindle in african green monkey BSC1 cells at 20 uM after 4 hrs by immunocytochemistry; assay type: functional, cell-based; details: Chlorocebus aethiops
[5] = test system: BSC-1; experiment: Antimitotic activity against african green monkey BSC1 cells assessed as induction of monopolar spindles by immunofluorescence microscopy; assay type: functional, cell-based; details: Chlorocebus aethiops
[6] = test system: BSC-1; experiment: Induction of monopolar mitotic spindles in african green monkey BSC1 cells assessed as percentage of monopolar cells with two centrosomes at 20 uM after 4 hrs; assay type: functional, cell-based; details: Chlorocebus aethiops
[7] = test system: BSC-1; experiment: Antimitotic activity against african green monkey BSC1 cells assessed as induction of monopolar spindles and two separated astral microtubule array at 20 uM by immunofluorescence microscopy; assay type: functional, cell-based; details: Chlorocebus aethiops
[8] = test system: PtK2; experiment: Induction of monopolar mitotic spindles in rat kangaroo PtK2 cells expressing GFP-labeled alpha-tubulin after 4 hrs; assay type: functional, cell-based; details: Potorous tridactylus
[9] = test system: PtK2; experiment: Inhibition of polo-like kinase 1 activity in rat kangaroo PtK2 cells expressing GFP-labeled alpha-tubulin assessed as interkinetochore distance at 20 uM after 45 mins; assay type: cell-based; details: Potorous tridactylus
[10] = test system: PtK2; experiment: Inhibition of polo-like kinase 1 activity in rat kangaroo PtK2 cells expressing GFP-labeled alpha-tubulin assessed as phosphorylation of Cdc25c at centrosomes after 1 hr by quantitative immunofluorescence; assay type: cell-based; details: Potorous tridactylus
[11] = target: T1, Serine/threonine-protein kinase PLK1 (Homo sapiens, UniProt P53350); experiment: Inhibition of recombinant polo-like kinase 1 activity by SDS-PAGE
T1 sequence (P53350 whole entry): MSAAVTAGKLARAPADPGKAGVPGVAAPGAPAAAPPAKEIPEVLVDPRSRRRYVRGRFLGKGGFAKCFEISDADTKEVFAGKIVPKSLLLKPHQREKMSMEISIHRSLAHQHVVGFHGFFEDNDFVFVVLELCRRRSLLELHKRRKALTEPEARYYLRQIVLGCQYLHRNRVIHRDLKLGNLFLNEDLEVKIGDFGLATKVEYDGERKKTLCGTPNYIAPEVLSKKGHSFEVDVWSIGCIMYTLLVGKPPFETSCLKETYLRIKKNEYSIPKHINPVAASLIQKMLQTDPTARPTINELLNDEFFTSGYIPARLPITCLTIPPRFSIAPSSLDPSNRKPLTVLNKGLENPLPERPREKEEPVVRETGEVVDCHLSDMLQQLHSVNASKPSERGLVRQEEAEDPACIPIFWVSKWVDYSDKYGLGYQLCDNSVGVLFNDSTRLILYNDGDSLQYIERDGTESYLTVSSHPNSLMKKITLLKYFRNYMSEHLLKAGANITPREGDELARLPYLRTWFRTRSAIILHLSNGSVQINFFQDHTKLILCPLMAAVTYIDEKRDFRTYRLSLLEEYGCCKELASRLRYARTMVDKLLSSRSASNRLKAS

[12] = test system: PtK2; experiment: Induction of monopolar mitotic spindles in rat kangaroo PtK2 cells expressing GFP-labeled alpha-tubulin at 20 uM after 4 hrs; assay type: functional, cell-based; details: Potorous tridactylus
[13] = test system: PtK2; experiment: Inhibition of Aurora kinase activity in rat kangaroo PtK2 cells assessed as histone H3 phosphorylation at 25 uM after 1 hr by quantitative fluorescence; assay type: cell-based; details: Potorous tridactylus
[14] = test system: U2OS; experiment: Induction of monopolar spindles and reduction in gamma-tubulin at the centrosomes in human U2OS cells at 25 uM after 4 hrs by immunofluorescence; assay type: functional, cell-based
[15] = test system: U2OS; experiment: Induction of monopolar spindles and reduction in gamma-tubulin at the centrosomes in human U2OS cells at 50 uM after 4 hrs by immunofluorescence; assay type: functional, cell-based
[16] = test system: PtK2; experiment: Inhibition of polo-like kinase 1 activity in rat kangaroo PtK2 cells expressing GFP-labeled alpha-tubulin assessed as phosphorylation of Cdc25c at 20 uM after 1 hr by quantitative immunofluorescence; assay type: cell-based; details: Potorous tridactylus
[17] = test system: PtK2; experiment: Induction of mitotic index in rat kangaroo PtK2 cells expressing GFP-labeled alpha-tubulin after 4 hrs; assay type: functional, cell-based; details: Potorous tridactylus
[18] = test system: PtK2; experiment: Antimitotic activity in rat kangaroo PtK2 cells expressing GFP-labeled alpha-tubulin in presence of monastrol assessed as cells remained in mitosis at 20 uM after 90 mins by phase-contrast microscopy; assay type: functional, cell-based; details: Potorous tridactylus
[19] = test system: PtK2; experiment: Inhibition of polo-like kinase 1 activity in rat kangaroo PtK2 cells expressing GFP-labeled alpha-tubulin assessed as shortening of chromosome associated microtubule fibres at 20 uM by spinning disk confocal microscopy in presence of 20 uM MG132; assay type: cell-based; details: Potorous tridactylus
[20] = test system: PtK2; experiment: Inhibition of polo-like kinase 1 activity in rat kangaroo PtK2 cells expressing GFP-labeled alpha-tubulin assessed as shortening of chromosome associated microtubule fibres at 6.3 uM by spinning disk confocal microscopy in presence of 20 uM MG132; assay type: cell-based; details: Potorous tridactylus
[21] = test system: PtK2; experiment: Inhibition of polo-like kinase 1 activity in rat kangaroo PtK2 cells expressing GFP-labeled alpha-tubulin assessed as interkinetochore distance at 6 uM after 45 mins; assay type: cell-based; details: Potorous tridactylus
[22] = test system: PtK2; experiment: Inhibition of polo-like kinase 1 activity in rat kangaroo PtK2 cells expressing GFP-labeled alpha-tubulin assessed as V-shaped chromosome at 20 uM by spinning disk confocal microscopy in presence of 20 uM MG132; assay type: cell-based; details: Potorous tridactylus
[23] = test system: BSC-1; experiment: Antimitotic activity against african green monkey BSC1 cells assessed as induction of sphere like organization at 2.5 uM by immunofluorescence microscopy; assay type: functional, cell-based; details: Chlorocebus aethiops
[24] = target: T1, Serine/threonine-protein kinase PLK1; experiment: Inhibition of recombinant polo-like kinase 1 activity at 100 nM by SDS-PAGE
[25] = test system: PtK2; experiment: Inhibition of polo-like kinase 1 activity in rat kangaroo PtK2 cells expressing GFP-labeled alpha-tubulin assessed as phosphorylation of Cdc25c at 6.3 uM after 1 hr by quantitative immunofluorescence; assay type: cell-based; details: Potorous tridactylus
[26] = test system: PtK2; experiment: Change in microtubule dynamics in rat kangaroo PtK2 cells expressing GFP-labeled alpha-tubulin by replacing with PLK inhibitor- free medium; assay type: functional, cell-based; details: Potorous tridactylus
[27] = test system: PtK2; experiment: Induction of monopolar mitotic spindles in rat kangaroo PtK2 cells expressing GFP-labeled alpha-tubulin at 6.3 uM after 4 hrs; assay type: functional, cell-based; details: Potorous tridactylus
[28] = test system: PtK2; experiment: Inhibition of polo-like kinase 1 activity in rat kangaroo PtK2 cells expressing GFP-labeled alpha-tubulin assessed as stable microtubule bundles at 6.3 uM at 20 sec time interval for 5 min by spinning disk confocal microscopy; assay type: cell-based; details: Potorous tridactylus
[29] = test system: BSC-1; experiment: Antimitotic activity against african green monkey BSC1 cells assessed as induction of monopolar spindles at 20 uM by immunofluorescence microscopy; assay type: functional, cell-based; details: Chlorocebus aethiops
[30] = test system: PtK2; experiment: Antimitotic activity in rat kangaroo PtK2 cells expressing GFP-labeled alpha-tubulin in presence of monastrol assessed as cells remained in mitosis at 6 uM after 90 mins by phase-contrast microscopy; assay type: functional, cell-based; details: Potorous tridactylus
[31] = test system: PtK2; experiment: Inhibition of Aurora kinase activity in rat kangaroo PtK2 cells assessed as histone H3 phosphorylation at 6.3 uM after 1 hr by quantitative fluorescence; assay type: cell-based; details: Potorous tridactylus
[32] = test system: PtK2; experiment: Inhibition of polo-like kinase 1 activity in rat kangaroo PtK2 cells expressing GFP-labeled alpha-tubulin assessed as V-shaped chromosome at 6.3 uM by spinning disk confocal microscopy in presence of 20 uM MG132; assay type: cell-based; details: Potorous tridactylus
[33] = test system: BSC-1; experiment: Induction of reduced mitotic index in african green monkey BSC1 cells at 20 uM after 4 hrs by immunocytochemistry; assay type: functional, cell-based; details: Chlorocebus aethiops
[34] = test system: BSC-1; experiment: Induction of monopolar mitotic spindles in african green monkey BSC1 cells assessed as percentage of monopolar cells with two centrosomes at 5 uM after 4 hrs; assay type: functional, cell-based; details: Chlorocebus aethiops

COC(=O)Nc1nc2cc(C(=O)c3cccs3)ccc2[nH]1
1.4 µm: interkinetochore distance [1]

c1cc(Nc2ccc3c(c2)CCC3)nc(Nc2ccc3ncsc3c2)n1
4.52: pEC50 [5]
active: Activity [2] | Activity [3] | Activity [4] | Activity [6] | Activity [7]

N#Cc1cc([N+](=O)[O-])c2sc(C(N)=O)[n+]([O-])c2c1
2.3 µm: interkinetochore distance [9]
5.10: pIC50 [11]
active: Activity [8] Dose-dependent effect | Activity [10] Dose-dependent effect | Activity [12] | Activity [14] | Activity [15] | inhibition [16] | Activity [17] Dose-dependent effect | Activity [18]
20%: inhibition [13]

CC(=O)Nc1ccc(Nc2ncc([N+](=O)[O-])c(Nc3ccccc3C(=O)c3ccccc3)n2)cc1
5.30: pEC50 [5]
6.05: pIC50 [11]
active: inhibition [19] | Activity [8] Dose-dependent effect | inhibition [20] | inhibition [22] | Activity [10] Dose-dependent effect | Activity [23] | inhibition [25] | Activity [3] | Activity [26] | Activity [27] | Activity [14] | inhibition [28] | Activity [15] | Activity [29] | Activity [30] | inhibition [32] | Activity [33] | Activity [17] Dose-dependent effect | Activity [34]
inactive: inhibition [24]
1.9 µm: interkinetochore distance [21]
20%: inhibition [31]

Reference: ChEMBL document CHEMBL1240317, “Probing cell-division phenotype space and Polo-like kinase function using small molecules” (Nat Chem Biol, 2006)
